Results from ChEMBL document CHEMBL1146553, “Antiparasitic alkaloids from Psychotria klugii” (J Nat Prod, 2003).
≈ marks a conversion by molar mass, not a printed value. Calls of active or inactive are those of the source. No cut-off for these calls is given here.

Experiments:
HL-60 = experiment: Cytotoxicity against human HL60 cells by XTT assay; assay type: functional, cell-based
Plasmodium falciparum [1] = experiment: Antimalarial activity against chloroquine-resistant Plasmodium falciparum W2 by LDH reporter assay; assay type: functional, organism-based
Vero [2] = experiment: Cytotoxicity against african green monkey Vero cells; assay type: cell-based; settings: chlorocebus sabaeus
SK-MEL = experiment: Cytotoxicity against human SK-MEL cells; assay type: functional, cell-based
SK-OV-3 = experiment: Cytotoxicity against human SKOV3 cells; assay type: functional, cell-based
in vitro [3] = settings: monkey, Vero cells
Description: Selectivity index, ratio of IC50 for african green monkey (Cercopithecus aethiops) Vero cells to IC50 for chloroquine-sensitive Plasmodium falciparum D6

[4] = Specific index, ratio of IC50 for human HL60 cells to MIC for LFA1:CD11a/CD18/ICAM1- mediated aggregation in PMA-induced human HL60 cells; assay type: functional, HL-60
Plasmodium falciparum [5] = experiment: Antimalarial activity against chloroquine-sensitive Plasmodium falciparum D6 by LDH reporter assay; assay type: functional, organism-based
in vitro [6] = settings: monkey, Vero cells; remark: listed apart in the source
Description: Selectivity index, ratio of IC50 for african green monkey (Cercopithecus aethiops) Vero cells to IC50 for chloroquine-resistant Plasmodium falciparum W2

KB = experiment: Cytotoxicity against human KB cells; assay type: functional, cell-based
Leishmania donovani = experiment: Antileishmanial activity against Leishmania donovani promastigotes after 72 hrs; assay type: functional, organism-based
BT-549 = experiment: Cytotoxicity against human BT549 cells; assay type: functional, cell-based
[7] = molecular target: T1, Integrin alpha-L (Homo sapiens) (UniProt P20701); experiment: Inhibition of LFA1:CD11a/CD18/ICAM1- mediated aggregation in PMA-induced human HL60 cells; assay type: cell-based; settings: HL-60
T1 sequence (whole entry): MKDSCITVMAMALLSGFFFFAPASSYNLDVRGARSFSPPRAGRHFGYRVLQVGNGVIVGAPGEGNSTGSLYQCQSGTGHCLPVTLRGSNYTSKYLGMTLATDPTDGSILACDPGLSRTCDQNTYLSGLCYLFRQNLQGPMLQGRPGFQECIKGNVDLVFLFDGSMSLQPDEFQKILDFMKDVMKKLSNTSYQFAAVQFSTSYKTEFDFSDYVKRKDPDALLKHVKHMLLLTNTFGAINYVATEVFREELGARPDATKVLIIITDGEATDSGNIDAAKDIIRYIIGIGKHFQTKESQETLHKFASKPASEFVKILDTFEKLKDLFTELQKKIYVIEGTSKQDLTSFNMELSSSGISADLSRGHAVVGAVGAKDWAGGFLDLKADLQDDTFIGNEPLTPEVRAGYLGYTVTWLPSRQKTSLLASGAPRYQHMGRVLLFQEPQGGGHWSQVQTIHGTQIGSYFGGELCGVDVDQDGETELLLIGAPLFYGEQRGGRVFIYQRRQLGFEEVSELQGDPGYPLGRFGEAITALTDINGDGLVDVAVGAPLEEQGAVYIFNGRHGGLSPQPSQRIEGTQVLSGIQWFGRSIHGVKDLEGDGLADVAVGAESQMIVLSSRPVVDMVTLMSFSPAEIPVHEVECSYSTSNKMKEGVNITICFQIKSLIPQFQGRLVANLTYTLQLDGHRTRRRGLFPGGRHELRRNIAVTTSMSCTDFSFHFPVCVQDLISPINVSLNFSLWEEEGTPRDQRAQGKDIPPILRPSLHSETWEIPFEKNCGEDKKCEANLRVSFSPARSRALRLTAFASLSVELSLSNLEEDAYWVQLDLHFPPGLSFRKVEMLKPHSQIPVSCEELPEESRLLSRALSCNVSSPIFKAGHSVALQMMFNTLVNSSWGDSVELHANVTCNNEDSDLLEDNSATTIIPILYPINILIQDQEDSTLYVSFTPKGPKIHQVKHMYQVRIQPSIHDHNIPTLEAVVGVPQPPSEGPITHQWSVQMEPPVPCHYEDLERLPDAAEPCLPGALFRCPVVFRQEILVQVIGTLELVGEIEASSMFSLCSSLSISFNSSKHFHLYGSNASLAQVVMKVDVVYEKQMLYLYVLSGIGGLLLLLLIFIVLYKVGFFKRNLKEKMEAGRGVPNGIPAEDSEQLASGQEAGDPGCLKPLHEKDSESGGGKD

Vero [8] = experiment: Cytotoxicity against african green monkey Vero cells at 10 ug/ml; assay type: cell-based; settings: chlorocebus sabaeus
[9] = molecular target: T1, Integrin alpha-L (Homo sapiens); experiment: Inhibition of LFA1:CD11a/CD18/ICAM1-mediated human HL60 cell adhesion to human HeLa cells expressing ICAM1 by fluorescence analysis; assay type: cell-based
[10] = Specific index, ratio of IC50 for human HL60 cells to MIC for LFA1:CD11a/CD18/ICAM1-mediated human HL60 cell adhesion to human HeLa cells; assay type: functional

`CC[C@H]1CN2CCc3cc(OC)c(OC)cc3[C@@H]2C[C@@H]1C[C@H]1NCCc2cc(O)c(OC)cc21` [CEPHAELINE] gave an IC50 (HL-60) of 14.9 µg/mL (≈ 31.9 µM), an IC50 (Plasmodium falciparum [1]) of 0.0277 µg/mL (≈ 0.0594 µM) and an IC50 (Vero [2]) of 5.3 µg/mL (≈ 11.4 µM). For the same compound, the IC50 (SK-MEL) was 0.25 µg/mL (≈ 0.536 µM), the IC50 (SK-OV-3) was 0.18 µg/mL (≈ 0.386 µM) and the selectivity ratio (in vitro [3]) was 132. It also gave a Ratio [4] of 2.17, an IC50 (Plasmodium falciparum [5]) of 0.038 µg/mL (≈ 0.0814 µM) and a selectivity ratio (in vitro [6]) of 193. For the same compound, the IC50 (KB) was 0.33 µg/mL (≈ 0.707 µM), the IC50 (Leishmania donovani) was 0.03 µg/mL (≈ 0.0643 µM) and the IC90 (Leishmania donovani) was 1.5 µg/mL (≈ 3.21 µM). For the same compound, the IC50 (BT-549) was 0.86 µg/mL (≈ 1.84 µM) and the MIC [7] was 6.9 µg/mL (≈ 14.8 µM).

For `CCN(CC)CCCC(C)Nc1ccnc2cc(Cl)ccc12` (centres undefined) [CHLOROQUINE], the Activity (Vero [8]) was “Non-toxic”.

For `CC[C@H]1CN2CCc3cc(OC)c(OC)cc3[C@@H]2C[C@@H]1C[C@@H]1NCCc2cc(O)c(OC)cc21` [ISOCEPHAELINE], the IC50 (Plasmodium falciparum [1]) was 0.29 µg/mL (≈ 0.621 µM), the IC50 (SK-MEL) was > 10 µg/mL and the IC50 (SK-OV-3) was > 10 µg/mL. For the same compound, the Activity (Vero [8]) was “Non-toxic”, the selectivity ratio (in vitro [3]) was > 54 and the IC50 (Plasmodium falciparum [5]) was 0.187 µg/mL (≈ 0.4 µM). The selectivity ratio (in vitro [6]) was > 35, the IC50 (KB) was > 10 µg/mL and the IC50 (Leishmania donovani) was 0.45 µg/mL (≈ 0.964 µM). The IC90 (Leishmania donovani) was 0.98 µg/mL (≈ 2.1 µM) and the IC50 (BT-549) was > 10 µg/mL.

`C[C@@H]1[C@H](O)[C@@H](C)/C=C/C=C/C=C/C=C/C=C/C=C/C=C/[C@H](O[C@@H]2O[C@H](C)[C@@H](O)[C@H](N)[C@@H]2O)C[C@@H]2O[C@](O)(C[C@@H](O)C[C@@H](O)[C@H](O)CC[C@@H](O)C[C@@H](O)CC(=O)O[C@H]1C)C[C@H](O)[C@H]2C(=O)O` [AMPHOTERICIN B] showed an IC50 (Leishmania donovani) of 0.17 µg/mL (≈ 0.184 µM) and an IC90 (Leishmania donovani) of 0.28 µg/mL (≈ 0.303 µM).

In the case of `N=C(N)c1ccc(OCCCCCOc2ccc(C(=N)N)cc2)cc1` [PENTAMIDINE], the IC90 (Leishmania donovani) is reported as 2.4 µg/mL (≈ 7.05 µM).

Compound `COc1cccc2c1C(=O)c1c(O)c3c(c(O)c1C2=O)C[C@@](O)(C(=O)CO)C[C@@H]3O[C@H]1C[C@H](N)[C@H](O)[C@H](C)O1` [DOXORUBICIN] has an IC50 (SK-MEL) of 1.57 µg/mL (≈ 2.89 µM), an IC50 (SK-OV-3) of 1.53 µg/mL (≈ 2.81 µM) and an IC50 (KB) of 1.7 µg/mL (≈ 3.13 µM). For the same compound, the IC50 (BT-549) was 1 µg/mL (≈ 1.84 µM).

For `CC[C@H]1CN2CCc3cc(O)c(OC)cc3[C@@H]2C[C@@H]1C[C@@]1(O)NCCc2cc(O)c(OC)cc21` [KLUGINE], the IC50 (HL-60) was 25 µg/mL (≈ 53.4 µM), the IC50 (Plasmodium falciparum [1]) was 0.0463 µg/mL (≈ 0.0988 µM) and the IC50 (SK-MEL) was > 10 µg/mL. For the same compound, the IC50 (SK-OV-3) was > 10 µg/mL, the Activity (Vero [8]) was “Non-toxic” and the selectivity ratio (in vitro [3]) was > 265. For the same compound, the Ratio [4] was 1.2, the IC50 (Plasmodium falciparum [5]) was 0.0377 µg/mL (≈ 0.0805 µM) and the selectivity ratio (in vitro [6]) was > 217. The IC50 (KB) was > 10 µg/mL, the Activity [9] was “inactive” and the IC50 (Leishmania donovani) was 0.4 µg/mL (≈ 0.854 µM). For the same compound, the IC90 (Leishmania donovani) was 2.5 µg/mL (≈ 5.34 µM), the IC50 (BT-549) was > 10 µg/mL and the MIC [7] was 20.8 µg/mL (≈ 44.4 µM).

In the case of `C=C1[C@@H](C)[C@H]2[C@H](Cc3ccccc3)NC(=O)[C@]23OC(=O)/C=C/[C@H](O)CCC[C@@H](C)C/C=C/[C@H]3[C@@H]1O` [CYTOCHALASIN B], the IC50 (HL-60) is reported as > 30 µg/mL, the Ratio [10] is reported as >5.5 and the Ratio [4] is reported as 13. For the same compound, the MIC [7] was 2.5 µg/mL (≈ 5.21 µM).

With `C[C@@H]1CC[C@H]2[C@@H](C)C(=O)O[C@@H]3O[C@@]4(C)CC[C@@H]1[C@]32OO4` [ARTEMISININ] the IC50 (Plasmodium falciparum [1]) was 0.0085 µg/mL (≈ 0.0301 µM), the Activity (Vero [8]) was “Non-toxic” and the selectivity ratio (in vitro [3]) was > 699. For the same compound, the IC50 (Plasmodium falciparum [5]) was 0.0143 µg/mL (≈ 0.0506 µM) and the selectivity ratio (in vitro [6]) was > 1180.

For `CC[C@H]1CN2CCc3cc(OC)c(OC)cc3[C@@H]2C[C@@H]1C[C@@H]1NCCc2cc(O)c(O)cc21`, the IC50 (Plasmodium falciparum [1]) was 3.07 µg/mL (≈ 6.78 µM), the Activity (Vero [8]) was “Non-toxic” and the selectivity ratio (in vitro [3]) was > 7. For the same compound, the IC50 (Plasmodium falciparum [5]) was 1.5 µg/mL (≈ 3.31 µM), the selectivity ratio (in vitro [6]) was > 3 and the IC50 (Leishmania donovani) was 7.5 µg/mL (≈ 16.6 µM). For the same compound, the IC90 (Leishmania donovani) was 19 µg/mL (≈ 42 µM).

In the case of `CC[C@H]1CN2CCc3cc(OC)c(OC)cc3[C@@H]2C[C@@H]1C[C@H]1NCCc2cc(OC)c(OC)cc21` [EMETINE], the IC50 (HL-60) is reported as 0.38 µg/mL (≈ 0.791 µM), the IC50 (Plasmodium falciparum [1]) is reported as 0.078 µg/mL (≈ 0.162 µM) and the IC50 (Vero [2]) is reported as 0.42 µg/mL (≈ 0.874 µM). It also gave a selectivity ratio (in vitro [3]) of 6, a Ratio [4] of 1.53 and an IC50 (Plasmodium falciparum [5]) of 0.0727 µg/mL (≈ 0.151 µM). It also gave a selectivity ratio (in vitro [6]) of 5, an IC50 (Leishmania donovani) of 0.03 µg/mL (≈ 0.0624 µM) and an IC90 (Leishmania donovani) of 0.13 µg/mL (≈ 0.27 µM). For the same compound, the MIC [7] was 0.26 µg/mL (≈ 0.541 µM).
